Measurements taken from patent publication US8304422B2, “Compositions and methods for inhibition of the JAK pathway” (Rigel Pharmaceuticals, Inc., priority 2007, dated 2012).

Tested on: BaF3 V617F cells; UKE-1
Test: Proliferation Assay (Cell Titer-Glo; Example 7)
Type: cell-based
Conditions: proliferation 72 hours, inhibit JAK2 activity, cell line (BaF3 V617F or UKE-1) not stated
Protocol: BaF3 V617F cells are maintained and plated in RPMI with 10% FBS. Plating density for these cells is 1×10^5 cells/mL.
UKE-1 are maintained and plated in Iscove's DMEM containing 10% FBS, 10% equine serum, 1% penicillin/streptomycin and 1 uM hydrocortisone. Plating density for these cells is 0.4×10^6 cells/mL
The cells were resuspended in a corresponding medium at a required cell density (see above). 100μ of cell suspension was added to each well of a flat bottom 96 well white plate. The compound was serially diluted in DMSO from 5 mM in 3-fold dilutions, and then diluted 1:250 in the RPMI 1640 medium containing 5% FBS and pen/strep. 100 μL of resulting 2× compound solution was added per well in duplicate and the cells were allowed to proliferate for 72 hours at 37° C.
Proliferation was measured using Cell Titer-Glo. The substrate was thawed and allowed to come to room temperature. After removal of top 100 μL of medium from each well, 100 μL of the premixed Cell Titer-Glo reagent was added to each well. The plates were mixed on an orbital shaker for three minutes to induce lysis and incubated at ambient temperature for an additional five minutes to allow the signal to equilibrate. The Luminescence was read on the Wallac Plate Reader.
The results of the ability of the compounds of the invention to inhibit JAK2 activity, when tested in the above assay, are shown in the following Table XI wherein the level of activity (i.e., the IC50) for each compound is indicated in Table XI. The compound numbers in Table XI refers to the compounds disclosed herein as being prepared by the methods disclosed herein: […]

Compound	IC50 [nM]
CCNS(=O)(=O)NCc1ccc(Nc2nc(Nc3cc(C)c(OC)c(OC)c3)ncc2Cl)cc1 [II-109, 5-Chloro-4-[(4-(ethylamino)sulfonylamino)methylphenyl]-N2-(3,4-dimethoxy-5-methylphenyl)-2,4-pyrimidinediamine]	151
COc1c(C)cc(Nc2ncc(C(F)(F)F)c(Nc3ccc(CNS(=O)(=O)C4CC4)cc3)n2)cc1C [II-126, N4-[4-(N-Cyclopropylsulfonylamino)methylphenyl]-N2-(3,5-dimethyl-4-methoxyphenyl)-5-trifluoromethyl-2,4-pyrimidinediamine]	1510
COc1cc(Nc2ncc(Cl)c(Nc3ccc(CNS(=O)(=O)C4CC4)cc3)n2)cc(Cl)c1OC [II-200, 5-Chloro-N4-[4-(N-cyclopropylsulfonylamino)methylphenyl]-N2-[3,4-dimethoxy-5-chlorophenyl]-2,4-pyrimidinediamine]	276
CCNS(=O)(=O)NCc1cccc(Nc2nc(Nc3cc(C)c(OCC)c(C)c3)ncc2C)c1 [II-134, N2-(3,5-Dimethyl-4-ethoxyphenyl)-N4-[(3-(ethylamino)sulfonylamino)methylphenyl]-5-methyl-2,4-pyrimidinediamine]	231
CCN1CCN(c2ccc(Nc3ncc(C)c(Nc4ccc(CNS(=O)(=O)C5CC5)cc4)n3)cc2)CC1 [II-204, 5-Methyl-N4-[4-(N-cyclopropylsulfonylamino)methylphenyl]-N2-[4-(N-ethylpiperizin-4-yl)phenyl]-2,4-pyrimidinediamine]	175
5-Chloro-N2-[3,4-dimethyl-4-(2-(4-morpholinyl)ethoxy)phenyl]-N4-[2-methyl-4-((N-cyclopropylamino)sulfonylamino)methylphenyl]-2,4-pyrimidinediamine [II-183]	142
CCNS(=O)(=O)NCc1ccc(Nc2nc(Nc3ccc(C4CCN(C)CC4)cc3)ncc2Cl)cc1 [II-115, 5-chloro-N4-[(4-(ethylamino)sulfonylamino)methylphenyl]-N2-[4-(1-methyl-4-piperidinyl)pheny]-2,4-pyrimidinediamine]	409
CCS(=O)(=O)N1CCc2c(cccc2Nc2nc(Nc3cc(OC)c(OC)c(OC)c3)ncc2Cl)C1 [VI-5, 5-Chloro-N4-[1,2,3,4-tetrahydro-2-(ethylsulfonyl)-5-isoquinolinyl]-N2-(3,4,5-trimethoxyphenyl)-2,4-pyrimidinediamine]	798
CN1CCN(c2ccncc2Nc2ncc(Cl)c(Nc3ccc4c(c3)S(=O)(=O)NCC4)n2)CC1 [VII-3, 5-Chloro-N4-[3,4-dihydro-1,1-dioxide-2H-1,2-benzothiazin-7-yl]-N2-[4-(N-methylpiperizin-4-yl)pyridine-3-yl]-2,4-pyrimidinediamine]	1170
CCNS(=O)(=O)NCc1cccc(Nc2nc(Nc3ccc(N4CCN(C)CC4)c(C)c3)ncc2Cl)c1 [II-132, 5-Chloro-N4-[(3-(ethylamino)sulfonylamino)methylphenyl]-N2-[3-methyl-4-(4-methyl-1-piperazinyl)phenyl]-2,4-pyrimidinediamine]	1630
Cc1cc(CNS(=O)(=O)C2CC2)ccc1Nc1nc(Nc2ccc(N3CCN(C)CC3)c(C)c2)ncc1Cl [II-153, 5-Chloro-N4-[2-methyl-4-(N-cyclopropylsulfonylamino)methylphenyl]-N2-[3-methyl-4-(4-methyl-1-piperazinyl)phenyl]-2,4-pyrimidinediamine]	3330
Cc1cnc(Nc2ccc(C3=NCCN3)cc2)nc1Nc1ccc2c(c1)C(NS(=O)(=O)C1CC1)CC2 (racemic) [V-6, (+/−)-N4-[1-(Cyclopropylsulfonylamino)indan-6-yl]-N2-[4-(4,5-dihydro-1H-imidazol-2-yl)phenyl]-5-methyl-2,4-pyrimidinediamine]	1120
CN1CCC(c2ccc(Nc3ncc(Cl)c(Nc4ccc(CNS(=O)(=O)C5CC5)cc4)n3)cc2)CC1 [II-187, 5-Chloro-N4-[4-(N-cyclopropylsulfonylaminomethyl)phenyl]-N2-[4-(N-methylpiperidin-4-yl)phenyl]-2,4-pyrimidinediamine]	293
CCNS(=O)(=O)NCc1ccc(Nc2nc(Nc3ccc(N4CCN(C)CC4)cc3)ncc2C)cc1 [II-122, N4-[(4-(Ethylamino)sulfonylamino)methylphenyl]-5-methyl-N2-[4-(4-methyl-1-piperazinyl)phenyl]-2,4-pyrimidinediamine]	276
Cc1cnc(Nc2cncc(C)c2N2CCN(C)CC2)nc1Nc1ccc2c(c1)S(=O)(=O)NCC2 [VII-7, 5-Methyl-N4-[3,4-dihydro-1,1-dioxide-2H-1,2-benzothiazin-7-yl]-N2-[5-methyl-4-(N-methylpiperizin-4-yl)pyridine-3-yl]-2,4-pyrimidinediamine]	5390
Cc1cc(CNS(=O)(=O)NC2CC2)ccc1Nc1nc(Nc2ccc(N3CCN(C)CC3)c(C)c2)ncc1Cl [II-181, 5-Chloro-N4-[2-methyl-4-((N-cyclopropylamino)sulfonylamino)methylphenyl]-N2-[3-methyl-4-(4-methyl-1-piperazinyl)phenyl]-2,4-pyrimidinediamine]	4330
Cc1cc(Nc2ncc(Cl)c(Nc3ccc4c(c3)S(=O)(=O)NCC4)n2)cc(C)c1C [VII-9, 5-Chloro-N4-[3,4-dihydro-1,1-dioxide-2H-1,2-benzothiazin-7-yl]-N2-[3,4,5-trimethylphenyl]-2,4-pyrimidinediamine]	1340
CCS(=O)(=O)N1CCc2cc(Nc3nc(Nc4cc(C)c(OC)c(C)c4)ncc3F)ccc2C1 [VIII-10, N4-[(N-ethylsulfonyl)-1,2,3,4-tetrahydroisoquinolin-6-yl]-N2-(3,5-dimethyl-4-methoxy)phenyl-5-fluoro-2,4-pyrimidinediamine]	716
COc1cc(Nc2ncc(C)c(Nc3ccc(CNS(=O)(=O)N(C)C)cc3)n2)cc(OC)c1OC [II-103, N4-[(4-(Dimethylamino)sulfonylamino)methylphenyl]-5-methyl-N2-(3,4,5-trimethoxyphenyl)-2,4-pyrimidinediamine]	509
Cc1cnc(Nc2ccc(N3CCN(C)CC3)cc2C(F)(F)F)nc1Nc1ccc(CCNS(=O)(=O)C2CC2)cc1 [II-70]	1390
COc1c(C)cc(Nc2ncc(C)c(Nc3ccc4c(c3)CCN(S(=O)(=O)C3CC3)C4)n2)cc1C [VIII-9, N4-[(N-cyclopropylsulfonyl)-1,2,3,4-tetrahydroisoquinolin-6-yl]-N2-(3,5-dimethyl-4-methoxy)phenyl-5-methyl-2,4-pyrimidinediamine]	179
Cc1cc(CNS(=O)(=O)NC2CC2)ccc1Nc1nc(Nc2ccc(N3CCN(C)CC3)nc2)ncc1Cl [II-182, 5-Chloro-N4-[2-methyl-4-((N-cyclopropylamino)sulfonylamino)methylphenyl]-N2-[6-(4-methyl-1-piperazinyl)-3-pyridinyl]-2,4-pyrimidinediamine]	711
O=S(=O)(NCc1ccc(Nc2nc(Nc3ccc(N4CCN(C5CC6CCC5C6)CC4)cc3)ncc2Cl)cc1)C1CC1 (centres unmarked) [II-61, N-(4-(2-(4-(4-(bicyclo[2.2.1]heptan-2-yl)piperazin-1-yl)phenylamino)-5-chloropyrimidin-4-ylamino)benzyl)cyclopropanesulfonamide]	5970
COc1cc(Nc2ncc(C)c(Nc3ccc(CNS(=O)(=O)C4CC4)cc3)n2)cc(Cl)c1OC [II-198, 5-Methyl-N4-[4-(N-cyclopropylsulfonylamino)methylphenyl]-N2-[3,4-dimethoxy-5-chlorophenyl]-2,4-pyrimidinediamine]	116
CCNS(=O)(=O)NCc1ccc(Nc2nc(Nc3cc(C)c(OC)c(C)c3)ncc2C)cc1 [II-116, N2-(3,5-Dimethyl-4-methoxyphenyl)-N4-[(4-(ethylamino)sulfonylamino)methylphenyl]-5-methyl-2,4-pyrimidinediamine]	73.7
CCCOc1c(C)cc(Nc2ncc(Cl)c(Nc3ccc(CNS(=O)(=O)NC4CC4)cc3)n2)cc1C [II-157, 5-Chloro-N4-[4-((N-cyclopropylamino)sulfonylamino)methylphenyl]-N2-(3,5-dimethyl-4-propoxyphenyl)-2,4-pyrimidinediamine]	138
Cc1cc(Nc2ncc(C)c(Nc3ccc(CNS(=O)(=O)NC4CC4)cc3)n2)ccc1N1CCN(C)CC1 [II-172, N4-[4-((N-Cyclopropylamino)sulfonylamino)methylphenyl]-5-methyl-N2-[3-methyl-4-(4-methyl-1-piperazinyl)phenyl]-2,4-pyrimidinediamine]	2260
CCCOc1c(C)cc(Nc2ncc(Cl)c(Nc3ccc(CNS(=O)(=O)C4CC4)cc3)n2)cc1C [II-221, 5-Chloro-N4-[4-(N-cyclopropylsulfonylamino)methylphenyl]-N2-[3,5-dimethyl-4-(1-propoxy)phenyl]-2,4-pyrimidinediamine]	238
CCN1CCN(c2ccc(Nc3ncc(C)c(Nc4ccc(CNS(=O)(=O)N(C)C)cc4)n3)cc2)CC1 [II-107, N4-[(4-(Dimethylamino)sulfonylamino)methylphenyl]-5-methyl-N2-[4-(4-ethyl-1-piperazinyl)phenyl]-2,4-pyrimidinediamine]	316
